Assay results taken from article PMC10266040 (Proceedings of the National Academy of Sciences of the …, 2023).
Changes are numbered by the printed parent chain.

Columns and labels:
ETR1 [1] = biological target: T1, ETR1 (Arabidopsis thaliana, UniProt P49333, K91R); assay: saturable […]ethylene radioligand binding to yeast expressing the mutant
T1 sequence (P49333 1-738 K91R): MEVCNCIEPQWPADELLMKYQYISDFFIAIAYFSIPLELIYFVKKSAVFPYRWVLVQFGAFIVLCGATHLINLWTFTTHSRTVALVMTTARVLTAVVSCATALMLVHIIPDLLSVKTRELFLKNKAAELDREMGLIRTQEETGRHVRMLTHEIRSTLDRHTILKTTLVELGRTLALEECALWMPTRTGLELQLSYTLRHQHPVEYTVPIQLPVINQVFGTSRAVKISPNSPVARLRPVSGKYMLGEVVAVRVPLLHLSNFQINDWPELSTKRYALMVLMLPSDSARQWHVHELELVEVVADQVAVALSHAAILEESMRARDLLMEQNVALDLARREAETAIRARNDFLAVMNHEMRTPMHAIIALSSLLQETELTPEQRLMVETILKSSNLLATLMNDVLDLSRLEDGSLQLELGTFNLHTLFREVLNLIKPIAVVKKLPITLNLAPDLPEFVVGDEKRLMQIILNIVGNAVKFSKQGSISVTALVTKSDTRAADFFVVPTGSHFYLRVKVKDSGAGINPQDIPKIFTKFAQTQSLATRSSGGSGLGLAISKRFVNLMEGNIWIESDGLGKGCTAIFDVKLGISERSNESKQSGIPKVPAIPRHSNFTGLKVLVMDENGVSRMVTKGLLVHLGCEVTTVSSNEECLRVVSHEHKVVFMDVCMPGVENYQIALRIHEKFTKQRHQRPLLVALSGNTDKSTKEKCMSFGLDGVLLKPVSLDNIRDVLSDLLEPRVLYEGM

ETR1 [2] = biological target: T2, ETR1 (Arabidopsis thaliana, UniProt P49333, K91M); assay: as above
T2 sequence (P49333 1-738 K91M): T1 sequence (P49333 1-738 K91R) with R91M

- % of wildtype binding (ETR1 [1]): 63 % of wildtype binding
- % of wildtype binding (ETR1 [2]): ~ 6 % of wildtype binding
Compound: C=C [ethylene]
